The assay can be described thus: Inhibition of PLK1 in human MIAPaCa2 cells after 48 hrs by MTT assay. Background: Tetrazolium dyes change colour on reduction, which living cells bring about.
As usually defined, the EC50 is the concentration needed to bring the measured effect to its halfway point. Higher therefore signals a need for much substance. For the compound `CC(C)(C)Nc1c(Nc2ccnc(Nc3ccc(-c4ccncc4)cc3)n2)c(=O)c1=O`, the EC50 was found to be 1050 nM.

For the compound `CC(C)(C)Nc1c(Nc2ccnc(Nc3ccc4c(c3)Cc3ccccc3-4)n2)c(=O)c1=O`, the EC50 was more than 30000 nM.

For `CC(C)(C)Nc1c(Nc2ccnc(Nc3ccc(-c4ccccc4)cc3)n2)c(=O)c1=O`, the EC50 is more than 30000 nM.

Compound `CC(C)(C)Nc1c(Nc2ccnc(Nc3ccc(N4CCOCC4)cc3)n2)c(=O)c1=O` showed an EC50 of 8890 nM.

In turn, `CC(C)(C)Nc1c(Nc2ccnc(Nc3ccc(-c4csnn4)cc3)n2)c(=O)c1=O` came in with an EC50 of 8320 nM.

Compound `CC(C)(C)Nc1c(Nc2ccnc(Nc3ccc(-c4ccccn4)cc3)n2)c(=O)c1=O` came in with an EC50 of 8280 nM.

`CC(C)(C)Nc1c(Nc2ccnc(Nc3ccc4c(c3)[nH]c3ccccc34)n2)c(=O)c1=O` registered an EC50 of 5000 nM. Against the preceding compound, the EC50 is about 1.7-fold lower.

`CC(C)(C)Nc1c(Nc2ccnc(Nc3ccc4c(c3)CCO4)n2)c(=O)c1=O` came in with a concentration giving a half-maximal response (EC50) of 2860 nM.

As to `CC(C)(C)Nc1c(Nc2ccnc(Nc3ccc4ncsc4c3)n2)c(=O)c1=O`, the EC50 came to 2860 nM.

With `CC(C)(C)Nc1c(Nc2ccnc(Nc3ccc(-c4cccnc4)cc3)n2)c(=O)c1=O`, the EC50 was found to be 2550 nM.

`CC(C)(C)Nc1c(Nc2ccnc(Nc3ccc(-c4cn[nH]c4)cc3)n2)c(=O)c1=O` yielded a 50% effective concentration (EC50) of 1610 nM. This EC50 is about 1.6-fold lower than that of the compound before.

In turn, `CC(=O)N1CCc2cc(Nc3nccc(Nc4c(NC(C)(C)C)c(=O)c4=O)n3)ccc21` showed an EC50 of 1470 nM.

`CC(C)(C)Nc1c(Nc2ccnc(Nc3ccc4[nH]ncc4c3)n2)c(=O)c1=O`: the midpoint of the response, the EC50, lay at 1470 nM. This counts as single-digit micromolar.

The values are drawn from BindingDB's records for doi:10.1016/j.bmcl.2012.10.009 (Abbott Laboratories, 2012).
